Publication PMC12518639, “Apomorphine is a novel necroptosis inhibitor targeting mixed lineage kinase domain-like protein oligomerization” (Cell Death Discovery, 2025)

Experiments:
[1] = Auto-oxidation of APO in solution by real-time 1D 1H NMR; type: physicochemical; settings: freshly dissolved in DPBS, 25 °C, 36 h
Experimental: Fig. 2 Effect of redox-sensitive APO on MLKL oligomerization. A Chemical structure of APO. APO undergoes auto-oxidation to form the oxidized form (Ox-APO), while the addition of DTT preserves the reduced form (Re-APO). The red highlights indicate the sites where APO loses hydrogen and electrons during the oxidation process. B Real-time 1D ^1H NMR spectra showing the degree of oxidation of APO. APO was dissolved from its powdered form in DPBS and incubated at 25 °C for 36 h. Real-time 1D ^1H NMR spectra were measured at a 2 h intervals after filtration through a 0.2 μm syringe filter to remove precipitates. […] C MLKL oligomerization is inhibited by APO. THP-1 cells were treated with TBZ and Re-APO or Ox-APO for 8 h. Western blot analysis of WCLs was performed under non-reducing and reducing conditions using the indicated antibodies. Percentage changes of p-MLKL oligomer band relative to GAPDH were shown. The p value for MLKL oligomer band intensity was calculated based on the average intensity of the tetramer and octamer bands. Octa octamer, Tetra tetramer, Mono monomer. Mean ± SEM (n = 3). **p < 0.001, ns not significant, one-way ANOVA. D THP-1 cells were treated with TBZ and Ox-APO or Re-APO for 8 h and then stained with DAPI and MLKL for confocal microscopy. […] The signal intensity of MLKL fluorescence from the plasma membrane to the cytosol was measured using FluoView FV1000 software. […]

THP-1-HMGB1-Lucia cells = experiment: TBZ-induced necroptosis screening by HMGB1-luciferase release; type: cell-based, human; settings: Homo sapiens; 20 μM compound with TBZ, 8 h; TBZ alone = 100, DPBS = 0; read-out: % Inhibition (luciferase activity relative to TBZ-treated supernatant)
Experimental: To identify potential inhibitors of the necroptosis pathway targeting MLKL or the process of p-MLKL pore formation on the membrane, we screened a library of 2150 compounds, including FDA-approved drugs and those in phase 1–3 clinical trials, using THP-1-HMGB1-Lucia™ cells expressing the HMGB1-luciferase fusion protein. The cells were treated with a necroptosis-inducing mixture containing TNF-α, BV6, and Z-VAD-FMK (TBZ) in addition to the compound library (Fig. 1A). The supernatants were harvested to measure luciferase activities for necroptosis. The luciferase activities of cell supernatants treated with TBZ alone were considered as the maximum release (100%) of HMGB1-luciferase. NEC-1, a known RIP1 inhibitor used in both humans and mice, was used as a positive control. […] Next, we performed a propidium iodide (PI) uptake assay to exclude cytotoxic compounds using THP-1 cells. Then, we selected candidate molecules that were arbitrarily less than 30% of those treated with TBZ. […] Next, the inhibition levels of p-MLKL were tested to select MLKL-targeting molecules (Figs. 1C and S1A). Compounds that reduced p-MLKL levels to less than 30% of TBZ-treated controls were considered as potential inhibitors of MLKL phosphorylation. Conversely, compounds that maintained p-MLKL levels above 70% were selected because they are presumed to prevent the formation of pores in the plasma membrane by interfering with oligomerization.
A clinical chemical library containing 2150 items (Korea Chemical Bank, South Korea), under phase 1–3 clinical trials, including FDA-approved drugs, was used to screen for necroptosis inhibitors. Each chemical was dissolved in DMSO and diluted to 20 μM in DPBS for treatment.
THP-1-HMGB1-Lucia^TM cells were pretreated with the pan-caspase inhibitor Z-VAD-FMK (50 μM, tlrl-vad, InvivoGen) and each chemical for 1 h, and followed by TNF-α (100 ng/mL, TNF0501, NKMAXBio, Seongnam, S. Korea) and Smac mimetic BV6 (10 μM, B1332-5, Biovision, Santa Clara, CA, USA), termed TBZ mixture, were added for necroptosis screening. The RIP1 inhibitor, NEC-1 (1846, Biovision), and MLKL inhibitor, NSA (432531-71-0, Sigma-Aldrich, St. Louis, MO, USA), were used as controls. The cell supernatant was harvested to measure HMGB1 levels using a luciferase assay kit (E1500, Promega, Madison, WI, USA) by a luminometer (Centro XS3 LB 960, Berthold Technologies, Bad Wildbad, Germany). The inhibition of necroptosis (%) was calculated as: (sample-treated data – medium-only data) × 100/(TBZ-treated data – medium-only data). APO [STK088477, (6aS)-6-methyl-5,6,6a,7-tetrahydro-4H-dibenzo[de,g]quinoline-10,11-diol, Vitas-M Laboratory, Hong Kong] was stored at −70 °C after aliquoting with DMSO. APO was used after dilution in DPBS. APO is susceptible to auto-oxidation in solution in the presence of light and air. DPBS containing 5 mM DTT was used for Re-APO. Ox-APO was prepared by incubating APO in DPBS at 25 °C for 24 h in the presence of light and air, followed by removal of any precipitate by filtration through 0.2 μm.

For `CN1CCc2cccc3c2[C@@H]1Cc1ccc(O)c(O)c1-3` [S62, (6aS)-6-methyl-5,6,6a,7-tetrahydro-4H-dibenzo[de,g]quinoline-10,11-diol], the “time to saturation of APO oxidation” value [1] was 24 h and the activity at 20 µM (THP-1-HMGB1-Lucia cells) was 7.1%.
